Here are results for two compounds from patent publication US7205004B2, “Herbal composition for treatment of neuronal injuries and neuronal degeneration, methods to prepare the same and uses thereof” (priority 2000, dated 2007).

Common to all, as to assay type: in vivo
The test system of test [1] is mice. The experiment in a line: Effects on the weight of immune organs. Conditions: mice n = 15, 7 days; Bu-Nao-Gao 4 g/Kg orally, hydrocortisone 50 mg/Kg intramuscularly. The procedure:
Mice were randomly distributed, and were given Bu-Nao-Gao (4 g/Kg) orally, or hydrocortison (50 mg/Kg) or saline intramuscularly, for seven days. 24 hours after the last administration, mice were sacrificed.

The test system of test [2] is mice. The experiment in a line: Effects on antibody production in mice (sheep erythrocyte immunization). Conditions: mice n = 15, immunized with 10% sheep erythrocytes day 2, measured day 8; Bu-Nao-Gao 4 g/Kg orally, hydrocortisone 50 mg/Kg i.m., 7 days. The procedure: Mice were randomly distributed, and were given Bu-Nao-Gao (4 g/Kg) orally, or hydrocortison (50 mg/Kg) or saline intramuscularly, for seven days. On day 2, they were immunized with 10% sheep erythrocytes intra-peritoneally. On day 8, erythrocyte agglutination as well as cell lysis were measured respectively.

Test [3] relates to mice. Conditions: mice n = 15; Bu-Nao-Gao oral 4 g/Kg daily, cyclophosphomide 0.03 g/kg i.m. every other day. The method, then: Mice were given Bu-Nao-Gao (oral at 4 g/Kg daily), or cyclophosphomide (0.03 g/kg, intramuscularly every other day) or saline (oral, daily). On day 3, mice were given 0.02 ml of 7% DNCB subcutaneously on the back, and were boosted three days later in the same way. 9 days later, 0.02 ml of 1% DNCB was applied to the left ear. This area was removed by a ear puncher of 9 mm diameter and the extent of ear swelling represents the extent of delayed-type hypersensitivity (for results, see Table 6).

As to `C[C@]12CCC(=O)C=C1CC[C@@H]1[C@@H]2[C@@H](O)C[C@@]2(C)[C@H]1CC[C@]2(O)C(=O)CO` [Hydrocortisone], in test [1], the “Index of immune organ (mg/g X +/− SD), Spleen” value stood at 2.66 ± 0.40 mg/g and the “Index of immune organ (mg/g X +/− SD), thymus” value amounted to 1.37 ± 0.26 mg/g. In test [2], the “Agglutinin (33) (HC50)” value was 126.7 +/− 19.3 and the “Erythorcytolysin (32)” value was 37.5 +/− 4.2.
Take `O=P1(N(CCCl)CCCl)NCCCO1` (centres unmarked) [cyclo-phosphamidum, cyclophosphomide]: the “DNCB (extent of swolleness)” value in test [3] is given as 12.26 +/− 8.8.
